Measured values as given in a melting point compilation (Tetko et al.; mined from patent text by program, amines drawn as free bases though some values may be those of a salt).

Q: With `COc1cc(CSc2ccc(O)cc2)cc(OC)c1OC` as the compound, how does the melting point read?
A: Its melting point is 139 to 140 °C.

Q: Which melting point does the source give for `COc1ccc(CNc2cc3c(Nc4ccc(Cl)c(Br)c4)ncnc3cn2)cc1` here?
A: The melting point was 207 to 210 °C.

Q: Which melting point does the source give for `CCCc1nn(C)c2c(=O)n(CCNc3ccc(OC(C)(C)C(=O)O)cc3)c(C)nc12` here?
A: The melting point was 88 to 90 °C.

Q: Which melting point does the source give for `Cc1c(-c2ccccn2)[nH]c2ncnc(Nc3cccc(Cl)c3)c12` here?
A: Its melting point is 171 to 172 °C.

Q: With `CONc1nc(C#Cc2ccccc2)nc2c1ncn2[C@@H]1O[C@H](CO)[C@@H](O)[C@H]1O` as the compound, how does the melting point read?
A: Its melting point is 175 to 177 °C.

Q: Which melting point does the source give for `O=C(N[C@H]1CC[C@H](CCN2CCC(c3cccc4c3CCO4)CC2)CC1)c1ccc(-c2ccccc2)cc1` here?
A: Its melting point is 241 °C.

Q: For `CC(C)(C)c1ccc(-c2nc3ccc(C(=O)O)cc3[nH]2)cc1`, which melting point is on record?
A: Its melting point is 212 °C.

Q: With `CC(C)c1ccccc1N1/C(=N\N=C/c2ccc(-c3ncn(-c4ccc(OC(F)(F)F)cc4)n3)cc2)SCC1(C)O` (centres undefined) as the compound, how does the melting point read?
A: Its melting point is 114 to 116 °C.

Q: For `Nc1cccc(F)c1C(=O)NCC(=O)O`, which melting point is on record?
A: The melting point was 188 to 192 °C.

Q: With `Cn1nnc(-c2ccc3c(c2)c(C2=CCN(CCN4CCNC4=O)CC2)cn3-c2ccncc2)n1` as the compound, how does the melting point read?
A: Its melting point is 177 to 178 °C.

Q: With `CCOCc1nc(N)c(N=O)c(=O)[nH]1` as the compound, how does the melting point read?
A: The melting point was 163 to 165 °C.

Q: Which melting point does the source give for `CCC(C(=O)N(C)C)n1ccc(-c2ccccc2Cl)n1` (centres undefined) here?
A: Its melting point is 38.5 to 40 °C.

Q: Which melting point does the source give for `C[C@@H]1OC(=O)[C@@H](NC(=O)OC(C)(C)C)COC[C@H](Cc2ccccc2)[C@H]1OCCC(=O)N(C)C` here?
A: Its melting point is 142 to 143 °C.

Q: For `CCOC(=O)c1cn(-c2cc(OC)c(F)cc2[N+](=O)[O-])c2c(Cl)c(F)c(F)cc2c1=O`, which melting point is on record?
A: The melting point was 244 to 248 °C.

Q: With `CS(=O)(=O)N1CCN(c2ccc(C(=O)CCc3ccc(N)cc3)cc2)CC1` as the compound, how does the melting point read?
A: Its melting point is 166 to 170 °C.

Q: Which melting point does the source give for `COc1cccc2c1Cc1ccccc1C2(CCOS(C)(=O)=O)CCOS(C)(=O)=O` here?
A: The melting point was 128 to 131 °C.

Q: For `CC(=O)n1ccc2c1CCn1ccnc1C2=C1CCN(C)CC1`, which melting point is on record?
A: The melting point was 198 °C.

Q: For `O=C(Nc1ccccc1)NC(Cc1c[nH]c2ccccc12)C(=O)NCc1cc(C(F)(F)F)cc(C(F)(F)F)c1` (centres undefined), which melting point is on record?
A: The melting point was 219 to 221 °C.

Q: With `Nc1nc(O)c2c(n1)NCC(CCc1nc(C(=O)N[C@@H](CCC(=O)O)C(=O)O)c[nH]1)C2` (some centres undefined) as the compound, how does the melting point read?
A: The melting point was greater than 260 °C.

Q: Which melting point does the source give for `N#Cc1ccc(C(=O)C=Cc2ccccc2)cc1` here?
A: The melting point was 120 °C.

Q: For `CN(C(=O)OC(C)(C)C)[C@H](Cc1ccc2ccccc2c1)C(=O)N1CCc2ccccc2C1`, which melting point is on record?
A: The melting point was 121 to 126 °C.

Q: Which melting point does the source give for `O=C(O)COc1cc(Cl)ccc1C(=O)NCc1cccc(F)c1` here?
A: The melting point was 155 °C.

Q: For `CCn1cnc2c(Nc3cccc([N+](=O)[O-])c3)nc(N[C@H]3CC[C@H](O)CC3)nc21`, which melting point is on record?
A: Its melting point is 237 to 238 °C.

Q: For `O=c1[nH]c2ccccc2c(=O)n1CCCCNCCCn1c(=O)[nH]c2ccccc2c1=O`, which melting point is on record?
A: The melting point was 140 °C.

Q: For `COC(=O)Cc1cccc(OC)c1OCCCc1cc(O)nn1Cc1ccc(Cl)cc1Cl`, which melting point is on record?
A: Its melting point is 110 to 111 °C.

Q: Which melting point does the source give for `CCOC(=O)N(c1ccc(Cl)cc1)c1ccccc1-n1nc(C(=O)O)nc1CCl` here?
A: The melting point was 190 to 192 °C.

Q: With `O=C1c2cccnc2N(c2ccccc2)C(=O)C12CCCCO2` (centres undefined) as the compound, how does the melting point read?
A: The melting point was 213 to 215 °C.

Q: Which melting point does the source give for `COCCOc1cc2ncnc(Nc3ccc(C)c(OC(C)=O)c3)c2cc1OC` here?
A: The melting point was 180 to 183 °C.

Q: Which melting point does the source give for `Cn1nc(C#N)c2ccccc21` here?
A: Its melting point is 73 °C.

Q: For `CC(=O)N(C)c1ccc2c(c1)C(c1ccccc1F)=NCc1cnc(C)n1-2`, which melting point is on record?
A: The melting point was 217 to 223 °C.

Q: With `O=C(Nc1ccc(C(=O)N2Cc3ccccc3Nc3ccccc32)c(Cl)c1)c1ccccc1-c1ccccc1` as the compound, how does the melting point read?
A: Its melting point is 158 to 184 °C.

Q: Which melting point does the source give for `CC1=C(C)C(C)(OC(N)=O)N(c2ccc(Cl)c(Cl)c2)C1=O` (centres undefined) here?
A: Its melting point is 141 to 142 °C.

Q: With `NC1=NS(=O)N=C1NCCCOc1cccc2c(=O)[nH]ccc12` (centres undefined) as the compound, how does the melting point read?
A: The melting point was 235 °C.

Q: Which melting point does the source give for `NS(=O)(=O)c1cc2cc(CCOCc3ccccc3)ccc2s1` here?
A: The melting point was 136 to 138 °C.

Q: For `CC1=C(C#N)C(=C(C#N)C#N)OC1(C)c1ccc(Cl)c(Cl)c1` (centres undefined), which melting point is on record?
A: The melting point was 226 to 229 °C.

Q: For `CCOC(=O)C(C)(C)n1c(=O)[nH]c2ccc(C)cc2c1=O`, which melting point is on record?
A: The melting point was 156 to 157 °C.

Q: For `CC1(C)OCc2cc(Cc3c[nH]cn3)ccc2O1`, which melting point is on record?
A: Its melting point is 150 to 170 °C.

Q: Which melting point does the source give for `COc1ccc(C=Cn2ncc3ccccc3c2=O)cc1` here?
A: The melting point was 267 to 269 °C.

Q: With `COc1ccc(CCCC(=O)NC(NC(=NC#N)Nc2cccnc2C)C(C)(C)C)cc1` (centres undefined) as the compound, how does the melting point read?
A: The melting point was 65 to 68 °C.

Q: For `CC(C)(Cc1ccccc1)C(NC(=O)c1ccc(Cl)cc1)NC(=NC#N)Nc1cccnc1` (centres undefined), which melting point is on record?
A: Its melting point is 182 to 183 °C.

Q: For `O=C(O)c1ccccc1C(=O)NCCCCc1cccnc1`, which melting point is on record?
A: Its melting point is 132 to 135 °C.

Q: Which melting point does the source give for `O=C(O)c1ccc(-c2cnc3c(c2)N(Cc2ccccc2OC(F)(F)F)CCN3)cc1` here?
A: The melting point was 250 °C.

Q: With `Nc1cc(Cl)c(S(N)(=O)=O)cc1N` as the compound, how does the melting point read?
A: The melting point was 216 °C.

Q: With `Cc1ccc(-c2ccccc2C(=O)Nc2ccc(C(=O)N3C[C@@H]4CCCN4C(=O)c4ccccc43)cc2)cc1` as the compound, how does the melting point read?
A: Its melting point is 230 to 232 °C.

Q: For `CN1C(=O)C2C3C=CC(C3)C2(c2ccc(N)cc2)C1=O` (centres undefined), which melting point is on record?
A: Its melting point is 129 to 131 °C.

Q: For `CCOc1cc2cc3c(Nc4cc(OC)c(Cl)cc4C)c(C#N)cnc3cc2cc1OCCCl`, which melting point is on record?
A: The melting point was 129 to 130 °C.

Q: With `O=Cc1c(Cl)cncc1Cl` as the compound, how does the melting point read?
A: Its melting point is 110 to 111 °C.

Q: With `CCOC(=O)C(NC(C)=O)c1csc(NC(C)=O)n1` (centres undefined) as the compound, how does the melting point read?
A: The melting point was 149 to 150 °C.

Q: Which melting point does the source give for `Cc1cccc(NC(=O)NCCC(=O)O)c1` here?
A: The melting point was 166 °C.
